Measured values taken from ChEMBL document CHEMBL1140654 (Bioorg Med Chem Lett, 2007).

Assays:
[1] = test system: U-937; test: Inhibition of TNFalpha production in U937 cells; settings: Homo sapiens
[2] = test system: Rattus norvegicus; test: Inhibition of TNFalpha production in rat at 40 mg/kg, ip administered 1 hr prior to LPS challenge; type: functional; parameters: scale not given: the % may be the effect or the level left; settings: route intraperitoneal
[3] = biological target: Mitogen-activated protein kinase 9 (Homo sapiens, UniProt P45984); test: Inhibition of JNK2
[4] = biological target: T1, Inhibitor of nuclear factor kappa-B kinase subunit beta (Homo sapiens, UniProt O14920); test: Inhibition of IKK2
T1 sequence (O14920 whole entry): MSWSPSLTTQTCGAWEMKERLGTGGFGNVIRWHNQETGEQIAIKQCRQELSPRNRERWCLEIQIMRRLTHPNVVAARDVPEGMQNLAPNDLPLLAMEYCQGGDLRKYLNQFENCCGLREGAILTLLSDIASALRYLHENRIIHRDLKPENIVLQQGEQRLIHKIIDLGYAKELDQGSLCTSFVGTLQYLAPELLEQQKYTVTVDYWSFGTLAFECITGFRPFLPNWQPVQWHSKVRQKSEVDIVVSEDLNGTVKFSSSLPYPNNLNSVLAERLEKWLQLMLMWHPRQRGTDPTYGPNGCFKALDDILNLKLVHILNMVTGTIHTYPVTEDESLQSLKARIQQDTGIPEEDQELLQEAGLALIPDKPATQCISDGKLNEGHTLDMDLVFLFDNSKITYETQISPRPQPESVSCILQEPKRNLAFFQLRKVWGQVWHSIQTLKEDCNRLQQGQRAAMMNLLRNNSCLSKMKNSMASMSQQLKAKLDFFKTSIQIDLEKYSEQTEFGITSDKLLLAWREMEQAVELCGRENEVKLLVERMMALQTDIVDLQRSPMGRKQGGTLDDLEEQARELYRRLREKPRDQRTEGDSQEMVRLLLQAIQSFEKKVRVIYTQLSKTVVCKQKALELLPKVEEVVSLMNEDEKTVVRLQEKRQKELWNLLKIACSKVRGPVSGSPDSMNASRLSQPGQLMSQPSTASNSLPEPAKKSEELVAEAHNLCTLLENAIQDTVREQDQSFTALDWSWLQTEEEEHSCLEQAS

[5] = biological target: MAP kinase-activated protein kinase 3 (Homo sapiens, UniProt Q16644); test: Inhibition of MK3; type: single protein
[6] = biological target: MAP kinase-interacting serine/threonine-protein kinase 1 (Homo sapiens, UniProt Q9BUB5); test: Inhibition of MNK1
[7] = biological target: T2, MAP kinase-activated protein kinase 5 (Homo sapiens, UniProt Q8IW41); test: Inhibition of PRAK
T2 sequence (Q8IW41 whole entry): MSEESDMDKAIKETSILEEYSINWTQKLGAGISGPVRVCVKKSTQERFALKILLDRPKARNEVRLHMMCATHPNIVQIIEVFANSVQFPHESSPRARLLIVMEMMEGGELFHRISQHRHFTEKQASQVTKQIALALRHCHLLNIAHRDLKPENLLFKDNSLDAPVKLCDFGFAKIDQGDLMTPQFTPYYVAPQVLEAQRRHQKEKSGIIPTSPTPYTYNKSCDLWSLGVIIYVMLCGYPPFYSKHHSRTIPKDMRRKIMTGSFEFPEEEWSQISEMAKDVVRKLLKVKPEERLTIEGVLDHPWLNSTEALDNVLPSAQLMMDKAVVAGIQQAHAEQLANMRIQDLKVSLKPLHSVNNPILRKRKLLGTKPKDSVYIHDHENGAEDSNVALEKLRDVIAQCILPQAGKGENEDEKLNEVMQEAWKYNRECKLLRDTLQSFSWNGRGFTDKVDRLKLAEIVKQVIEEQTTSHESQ

[8] = biological target: Ribosomal protein S6 kinase alpha-5 (Homo sapiens, UniProt O75582); test: Inhibition of MSK1
[9] = biological target: Mitogen-activated protein kinase 14 (Homo sapiens, UniProt Q16539); test: Inhibition of p38alpha
[10] = biological target: MAP kinase-activated protein kinase 2 (Homo sapiens, UniProt P49137)
[11] = biological target: Mitogen-activated protein kinase 1 (Homo sapiens, UniProt P28482); test: Inhibition of ERK2
Chain of Mitogen-activated protein kinase 1 (P28482 whole entry): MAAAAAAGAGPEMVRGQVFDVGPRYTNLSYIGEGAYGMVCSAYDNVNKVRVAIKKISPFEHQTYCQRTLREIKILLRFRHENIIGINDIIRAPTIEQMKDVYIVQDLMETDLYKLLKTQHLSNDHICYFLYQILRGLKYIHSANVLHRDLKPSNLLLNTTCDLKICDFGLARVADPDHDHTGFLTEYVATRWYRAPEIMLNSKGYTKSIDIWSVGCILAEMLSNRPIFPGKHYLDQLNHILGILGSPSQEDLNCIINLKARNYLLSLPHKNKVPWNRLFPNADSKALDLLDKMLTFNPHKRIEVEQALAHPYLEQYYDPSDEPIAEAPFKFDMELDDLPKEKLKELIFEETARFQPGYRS

Chain of MAP kinase-activated protein kinase 3 (Q16644 whole entry): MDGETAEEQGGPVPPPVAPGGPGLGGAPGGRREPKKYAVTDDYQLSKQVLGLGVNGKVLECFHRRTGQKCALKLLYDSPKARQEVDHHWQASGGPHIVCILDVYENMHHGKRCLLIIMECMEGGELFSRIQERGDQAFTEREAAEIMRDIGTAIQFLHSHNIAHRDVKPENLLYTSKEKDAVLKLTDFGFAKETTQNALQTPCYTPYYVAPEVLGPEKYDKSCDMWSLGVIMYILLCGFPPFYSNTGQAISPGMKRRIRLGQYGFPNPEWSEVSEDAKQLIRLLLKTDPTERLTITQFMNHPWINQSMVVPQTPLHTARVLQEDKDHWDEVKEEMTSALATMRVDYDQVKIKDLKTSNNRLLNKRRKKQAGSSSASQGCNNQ
Chain of MAP kinase-activated protein kinase 2 (P49137 whole entry): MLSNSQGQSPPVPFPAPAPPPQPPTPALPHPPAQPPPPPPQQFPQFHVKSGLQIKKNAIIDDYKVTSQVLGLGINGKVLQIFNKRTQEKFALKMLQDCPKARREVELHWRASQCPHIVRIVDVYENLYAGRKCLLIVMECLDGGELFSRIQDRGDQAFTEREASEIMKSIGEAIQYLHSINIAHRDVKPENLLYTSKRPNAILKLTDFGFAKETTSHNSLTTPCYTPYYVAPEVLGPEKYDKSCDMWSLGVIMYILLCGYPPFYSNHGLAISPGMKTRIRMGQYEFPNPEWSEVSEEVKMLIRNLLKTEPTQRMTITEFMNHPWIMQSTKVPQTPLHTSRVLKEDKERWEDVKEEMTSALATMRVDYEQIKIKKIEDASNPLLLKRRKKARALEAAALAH
Chain of Ribosomal protein S6 kinase alpha-5 (O75582 whole entry): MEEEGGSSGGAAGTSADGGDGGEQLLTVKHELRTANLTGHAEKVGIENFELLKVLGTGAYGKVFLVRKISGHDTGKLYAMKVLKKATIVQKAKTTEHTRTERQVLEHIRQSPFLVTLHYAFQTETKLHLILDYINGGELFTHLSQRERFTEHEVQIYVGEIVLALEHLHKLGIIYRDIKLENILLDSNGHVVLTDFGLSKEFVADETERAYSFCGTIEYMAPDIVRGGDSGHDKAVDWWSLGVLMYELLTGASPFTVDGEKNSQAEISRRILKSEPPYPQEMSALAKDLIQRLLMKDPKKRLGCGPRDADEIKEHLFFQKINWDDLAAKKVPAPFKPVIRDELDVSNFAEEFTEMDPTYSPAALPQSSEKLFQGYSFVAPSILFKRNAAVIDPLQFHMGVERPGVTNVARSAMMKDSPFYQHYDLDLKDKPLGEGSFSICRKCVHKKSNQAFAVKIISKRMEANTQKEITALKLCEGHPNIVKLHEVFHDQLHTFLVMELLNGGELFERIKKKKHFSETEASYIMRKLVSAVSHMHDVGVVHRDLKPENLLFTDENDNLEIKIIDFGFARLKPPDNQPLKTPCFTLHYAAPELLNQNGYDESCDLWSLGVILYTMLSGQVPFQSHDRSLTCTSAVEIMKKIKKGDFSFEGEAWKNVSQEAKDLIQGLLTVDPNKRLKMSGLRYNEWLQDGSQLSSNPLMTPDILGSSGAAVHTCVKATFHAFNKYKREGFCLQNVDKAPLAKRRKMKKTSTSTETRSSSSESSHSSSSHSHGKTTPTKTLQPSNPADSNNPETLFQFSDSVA
Chain of Mitogen-activated protein kinase 9 (P45984 whole entry): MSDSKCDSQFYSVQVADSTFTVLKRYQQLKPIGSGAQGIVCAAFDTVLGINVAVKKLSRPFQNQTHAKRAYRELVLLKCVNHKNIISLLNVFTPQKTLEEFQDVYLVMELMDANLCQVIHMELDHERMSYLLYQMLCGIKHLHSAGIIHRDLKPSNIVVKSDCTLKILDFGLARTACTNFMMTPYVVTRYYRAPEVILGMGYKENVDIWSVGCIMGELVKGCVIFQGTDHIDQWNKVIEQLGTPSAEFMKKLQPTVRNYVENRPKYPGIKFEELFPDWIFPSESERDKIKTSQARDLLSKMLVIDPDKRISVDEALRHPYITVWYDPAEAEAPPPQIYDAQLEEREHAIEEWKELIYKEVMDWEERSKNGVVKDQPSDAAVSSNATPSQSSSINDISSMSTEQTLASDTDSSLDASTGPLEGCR
Chain of Mitogen-activated protein kinase 14 (Q16539 whole entry): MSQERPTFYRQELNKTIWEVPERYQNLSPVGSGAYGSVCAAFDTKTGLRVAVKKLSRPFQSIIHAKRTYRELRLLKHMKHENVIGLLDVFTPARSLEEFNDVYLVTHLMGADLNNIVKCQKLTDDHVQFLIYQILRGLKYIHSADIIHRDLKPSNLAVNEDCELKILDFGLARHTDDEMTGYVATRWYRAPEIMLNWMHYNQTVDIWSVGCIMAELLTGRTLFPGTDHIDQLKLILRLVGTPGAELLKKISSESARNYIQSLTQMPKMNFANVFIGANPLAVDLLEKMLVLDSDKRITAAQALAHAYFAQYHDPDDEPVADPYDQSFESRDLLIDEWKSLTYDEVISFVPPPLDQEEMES
Chain of MAP kinase-interacting serine/threonine-protein kinase 1 (Q9BUB5 whole entry): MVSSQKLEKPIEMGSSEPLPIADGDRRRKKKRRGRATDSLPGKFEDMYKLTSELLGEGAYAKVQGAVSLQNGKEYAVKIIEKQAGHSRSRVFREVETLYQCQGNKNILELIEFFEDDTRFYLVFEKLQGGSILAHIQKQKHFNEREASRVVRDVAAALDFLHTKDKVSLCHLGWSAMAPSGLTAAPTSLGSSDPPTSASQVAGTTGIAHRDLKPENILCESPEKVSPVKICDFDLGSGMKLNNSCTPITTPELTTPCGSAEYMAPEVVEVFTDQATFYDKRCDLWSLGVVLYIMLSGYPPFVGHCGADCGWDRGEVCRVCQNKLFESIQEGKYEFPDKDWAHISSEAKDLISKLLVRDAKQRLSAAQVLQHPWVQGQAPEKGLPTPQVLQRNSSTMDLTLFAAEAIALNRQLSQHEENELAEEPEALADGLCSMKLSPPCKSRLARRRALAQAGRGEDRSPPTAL

`CCCOC(=O)C1c2[nH]c3ccc(OC)cc3c2C2CCN1C2` (centres undefined) was tested, and the IC50 [1] was 0.83 µM and the Activity [2] was 84%.
`CCOC(=O)C1c2[nH]c3ccc(OC)cc3c2C2CCN1C2` (centres undefined) showed an IC50 [1] of 5.6 µM.
`COc1ccc2[nH]c3c(c2c1)C1CCN(C1)C3C(=O)OCc1ccccc1` (centres undefined) showed an IC50 [1] of 1.7 µM.
`COc1ccc2[nH]c3c(c2c1)C1CCN(C1)C3C(=O)O` (centres undefined) showed an IC50 [3] greater than 200 µM, an IC50 [1] of 80.8 µM and an IC50 [4] greater than 200 µM. It also gave an IC50 [5] of 90 µM, an IC50 [6] greater than 200 µM and an IC50 [7] of 24 µM. It also gave an IC50 [8] greater than 200 µM and an IC50 [9] greater than 100 µM.
`CC(=O)Oc1ccc2[nH]c3c(c2c1)CCNC3C(=O)O` (centres undefined) gave an IC50 [10] of 170 µM.
Compound `COc1ccc2[nH]c3c(c2c1)CCNC3c1nnn[nH]1` (centres undefined) has an IC50 [10] of 130 µM.
Work on `C=CCOC(=O)C1c2[nH]c3ccc(OC)cc3c2C2CCN1C2` (centres undefined) yielded an IC50 [1] of 14.4 µM.
Compound `COc1ccc2[nH]c3c(c2c1)CCNC3C(=O)O` (centres undefined) has an IC50 [3] greater than 200 µM, an IC50 [4] greater than 200 µM and an IC50 [11] greater than 100 µM. For the same compound, the IC50 [5] was greater than 200 µM, the IC50 [7] was 19 µM and the IC50 [8] was greater than 200 µM. For the same compound, the IC50 [9] was greater than 100 µM.
`COc1ccc2[nH]c3c(c2c1)C1CCCN(C1)C3C(=O)O` (centres undefined) gave an IC50 [5] of 160 µM.
Compound `COc1ccc2[nH]c3c(c2c1)C1CCN(C1)C3C(=O)OC(C)c1ccccc1` (centres undefined) has an IC50 [1] of 10.3 µM.
